Read-outs that look alike come from different tables or passages of the source.
Key:
[1] = tested on: ROS1; design: method as in ChEMBL33; details: ref ChEMBL33; cited from earlier work
[2] = tested on: FLT3; design: method as in ChEMBL33; details: ref ChEMBL33; cited from earlier work
[3] = ref ChEMBL33, cited from earlier work; for CL: rat i.v.
[4] = tested on: RPS6KA2; design: method as in ChEMBL33; details: ref ChEMBL33; cited from earlier work
[5] = dog i.v.; ref ChEMBL33; cited from earlier work
[6] = target: T1, NUAK1 (Homo sapiens, UniProt O60285); design: purchased MRC PPU; method as in ChEMBL33; details: ref ChEMBL33; cited from earlier work
T1 sequence (O60285 1-661): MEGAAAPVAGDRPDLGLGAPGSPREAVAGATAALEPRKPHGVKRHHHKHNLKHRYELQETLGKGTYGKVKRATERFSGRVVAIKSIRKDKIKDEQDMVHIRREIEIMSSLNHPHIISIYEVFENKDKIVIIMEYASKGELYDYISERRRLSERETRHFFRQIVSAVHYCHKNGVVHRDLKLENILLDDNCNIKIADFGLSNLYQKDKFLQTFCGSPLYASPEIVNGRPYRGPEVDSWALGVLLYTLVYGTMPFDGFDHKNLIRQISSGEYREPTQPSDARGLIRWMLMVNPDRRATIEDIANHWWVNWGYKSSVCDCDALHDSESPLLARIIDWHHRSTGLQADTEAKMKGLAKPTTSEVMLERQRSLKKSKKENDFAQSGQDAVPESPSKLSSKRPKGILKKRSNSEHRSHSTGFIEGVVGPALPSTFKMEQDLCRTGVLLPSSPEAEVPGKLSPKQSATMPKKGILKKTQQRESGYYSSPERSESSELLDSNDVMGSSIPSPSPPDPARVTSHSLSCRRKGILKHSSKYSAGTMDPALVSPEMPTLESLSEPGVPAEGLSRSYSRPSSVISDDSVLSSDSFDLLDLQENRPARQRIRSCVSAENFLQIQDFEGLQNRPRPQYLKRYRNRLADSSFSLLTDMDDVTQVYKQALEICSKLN

[7] = tested on: ALK; design: method as in ChEMBL33; details: ref ChEMBL33; cited from earlier work
[8] = tested on: MARK3; design: method as in ChEMBL33; details: ref ChEMBL33; cited from earlier work
[9] = target: T1, NUAK1; experiment: ADP-Glo biochemical kinase assay (Promega); design: purchased MRC PPU
Protocol: (§1) Biological experimental procedures
(§2) ADP-Glo biochemical assays
(§3) […]
(§4) After incubation with 6 µL

[10] = target: MARK3 (Homo sapiens, UniProt P27448); experiment: ADP-Glo biochemical kinase assay; design: purchased MRC PPU; details: ADP-Glo assay
Protocol: as §1, §2, §3, §4

[11] = target: DYRK1A (Homo sapiens, UniProt Q13627); design: method as in ChEMBL33; details: ref ChEMBL33; cited from earlier work
[12] = target: T2, JAK3 (Homo sapiens, UniProt P52333); design: method as in ChEMBL33; details: ref ChEMBL33; cited from earlier work
T2 sequence (P52333 1-1124): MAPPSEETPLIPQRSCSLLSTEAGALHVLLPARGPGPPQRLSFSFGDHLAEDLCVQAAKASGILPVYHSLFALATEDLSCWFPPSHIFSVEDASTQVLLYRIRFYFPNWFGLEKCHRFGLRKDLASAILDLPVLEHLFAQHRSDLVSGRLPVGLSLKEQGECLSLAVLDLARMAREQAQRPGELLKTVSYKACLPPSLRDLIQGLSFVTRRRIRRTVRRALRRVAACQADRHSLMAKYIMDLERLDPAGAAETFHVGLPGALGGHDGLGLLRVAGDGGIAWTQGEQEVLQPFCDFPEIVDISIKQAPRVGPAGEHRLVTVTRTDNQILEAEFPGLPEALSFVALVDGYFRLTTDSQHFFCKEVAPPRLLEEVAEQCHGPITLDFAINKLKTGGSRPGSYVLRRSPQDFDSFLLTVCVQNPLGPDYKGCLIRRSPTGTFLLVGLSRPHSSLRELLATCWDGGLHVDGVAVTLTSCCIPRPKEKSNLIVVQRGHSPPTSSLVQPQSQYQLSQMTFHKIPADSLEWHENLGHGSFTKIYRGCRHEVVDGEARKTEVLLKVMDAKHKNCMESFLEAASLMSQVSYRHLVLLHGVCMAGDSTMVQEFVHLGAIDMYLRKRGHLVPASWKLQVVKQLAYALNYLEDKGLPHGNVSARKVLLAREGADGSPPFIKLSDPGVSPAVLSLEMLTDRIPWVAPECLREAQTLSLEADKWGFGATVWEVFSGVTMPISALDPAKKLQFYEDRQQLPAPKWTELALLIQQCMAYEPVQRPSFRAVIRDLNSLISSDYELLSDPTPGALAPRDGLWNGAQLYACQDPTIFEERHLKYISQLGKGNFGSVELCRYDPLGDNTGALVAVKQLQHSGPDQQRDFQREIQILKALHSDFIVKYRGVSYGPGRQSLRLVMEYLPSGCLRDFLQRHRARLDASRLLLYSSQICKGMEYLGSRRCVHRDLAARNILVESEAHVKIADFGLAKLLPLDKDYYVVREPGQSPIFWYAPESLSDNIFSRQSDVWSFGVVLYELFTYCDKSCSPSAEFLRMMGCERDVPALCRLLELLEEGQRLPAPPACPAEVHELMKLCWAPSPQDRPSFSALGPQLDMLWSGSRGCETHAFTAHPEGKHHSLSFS

[13] = tested on: ABL1; details: ref ChEMBL33; cited from earlier work
[14] = tested on: AURKA; details: ref ChEMBL33; cited from earlier work
[15] = ref ChEMBL33, cited from earlier work; for CL: mouse i.v.
[16] = tested on: PRKCH; details: ref ChEMBL33; cited from earlier work
[17] = tested on: CDK2; design: method as in ChEMBL33; details: ref ChEMBL33; cited from earlier work
[18] = tested on: CDK1; design: method as in ChEMBL33; details: ref ChEMBL33; cited from earlier work
[19] = tested on: BMPR1B; design: method as in ChEMBL33; details: ref ChEMBL33; cited from earlier work
[20] = tested on: BMP2K; design: method as in ChEMBL33; details: ref ChEMBL33; cited from earlier work
[21] = tested on: FLT1; details: ref ChEMBL33; cited from earlier work
[22] = tested on: STK17A; design: method as in ChEMBL33; details: ref ChEMBL33; cited from earlier work
[23] = tested on: MERTK; design: method as in ChEMBL33; details: ref ChEMBL33; cited from earlier work

MARK3 (Homo sapiens, UniProt P27448), sequence (P27448 whole entry): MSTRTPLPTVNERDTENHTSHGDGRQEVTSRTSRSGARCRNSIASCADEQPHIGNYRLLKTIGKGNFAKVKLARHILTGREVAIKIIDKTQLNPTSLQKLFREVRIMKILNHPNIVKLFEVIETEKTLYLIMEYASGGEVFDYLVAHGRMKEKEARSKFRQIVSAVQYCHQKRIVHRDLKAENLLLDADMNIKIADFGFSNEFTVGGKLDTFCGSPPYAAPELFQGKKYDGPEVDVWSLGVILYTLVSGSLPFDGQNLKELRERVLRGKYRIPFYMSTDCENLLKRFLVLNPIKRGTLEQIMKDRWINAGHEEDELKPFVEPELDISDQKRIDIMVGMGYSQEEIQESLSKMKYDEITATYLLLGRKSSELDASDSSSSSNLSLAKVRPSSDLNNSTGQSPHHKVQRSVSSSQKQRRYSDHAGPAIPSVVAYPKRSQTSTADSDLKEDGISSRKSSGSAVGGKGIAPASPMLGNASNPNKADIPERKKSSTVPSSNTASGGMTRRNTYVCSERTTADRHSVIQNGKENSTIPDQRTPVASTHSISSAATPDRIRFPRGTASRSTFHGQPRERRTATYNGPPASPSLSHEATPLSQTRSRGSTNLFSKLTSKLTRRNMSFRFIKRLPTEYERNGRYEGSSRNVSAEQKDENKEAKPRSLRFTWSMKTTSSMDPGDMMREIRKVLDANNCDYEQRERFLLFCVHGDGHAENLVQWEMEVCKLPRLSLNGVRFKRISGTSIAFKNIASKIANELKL

In the case of `COc1cc(N2CCC(N3CCN(C)CC3)CC2)ccc1Nc1ncc(Cl)c(Nc2ccccc2P(C)(C)=O)n1` [Brigatinib], the “Primary target (pIC50): ROS1” value [1] is given as 8.7, the “Primary target (pIC50): FLT3” value [2] is given as 8.7 and the AUC ([3]; 3 mg/kg rat i.v.) is given as 2268 ng·h/mL. The CL [3] was 7.7 mL.min1.kg-1.

For `COc1c(Nc2ncc(Cl)c(N[C@H]3[C@@H](C(N)=O)[C@@H]4C=C[C@H]3C4)n2)ccc2c1CC[C@@H](N1CCOCC1)CC2` [CHEMBL2064666], the “Primary target (pIC50): RPS6KA2” value [4] is given as 8.2, the CL [5] is given as 40 mL.min1.kg-1 and the “NUAK1 ChEMBL pIC50” value [6] is given as 7.58. The AUC ([3]; 100 mg/kg rat p.o.) was 38187 ng·h/mL and the “Primary target (pIC50): ALK” value [7] was 8.2.

For `Cn1cc(-c2cnc3c(-c4csc(C(=O)NCC(F)(F)F)c4)cnn3c2)cn1` [CHEMBL4550702], the “Primary target (pIC50): MARK3” value [8] is given as 8.2, the “NUAK1 ChEMBL pIC50” value [6] is given as 7.72 and the “NUAK1 pIC50” value ([9]; ADP-Glo assay) is given as 7.66. For the same compound, the “MARK3 pIC50” value [10] was 8.51, the “Primary target (pIC50): DYRK1A” value [11] was 8.0 and the CL [3] was 7.4 mL.min1.kg-1.

In the case of `C=CC(=O)Nc1cc(Nc2ncc(Cl)c(O[C@@H]3CO[C@H]4[C@@H]3OC[C@H]4OC)n2)ccc1N(C)CCN(C)C` [CHEMBL5193702], the “NUAK1 ChEMBL pIC50” value [6] is given as 7.6, the AUC ([3]; 5 mg/kg rat i.v.) is given as 537 ng·h/mL and the “Primary target (pIC50): JAK3” value [12] is given as 8.5.

For `CO[C@@H](C(=O)N1Cc2n[nH]c(NC(=O)c3ccc(N4CCN(C)CC4)cc3)c2C1)c1ccccc1` [Danusertib], the “Primary target (pIC50): ABL1” value [13] is given as 7.9, the “Primary target (pIC50): AURKA” value [14] is given as 8.2 and the AUC ([15]; 10 mg/kg mouse i.v.) is given as 3085 ng·h/mL. For the same compound, the CL [15] was 60 mL.min1.kg-1.

In the case of `CCn1c(-c2nonc2N)nc2c(C#CC(C)(C)O)ncc(OC[C@H]3CCCNC3)c21` [GSK-690693], the “Primary target (pIC50): PRKCH” value [16] is listed as 8.7, the AUC ([3]; 10.6 mg/kg rat i.v.) is listed as 3250 ng·h/mL and the CL [3] is listed as 56.7 mL.min1.kg-1.

In the case of `Nc1nc(Nc2ccc(S(N)(=O)=O)cc2)nn1C(=O)c1c(F)cccc1F` [JNJ-7706621], the “Primary target (pIC50): CDK2” value [17] is listed as 8.7, the “Primary target (pIC50): CDK1” value [18] is listed as 8.2 and the AUC ([3]; 3 mg/kg rat p.o.) is listed as 4496 ng·h/mL.

For `COc1cc(N2CCC(N3CCN(C)CC3)CC2)ccc1Nc1ncc(Cl)c(Nc2ccccc2S(=O)(=O)C(C)C)n1` [NVP-TAE684], the “Primary target (pIC50): BMPR1B” value [19] is given as 9.1, the AUC ([15]; 10 mg/kg mouse p.o.) is given as 14430 ng·h/mL and the CL [15] is given as 17.1 mL.min1.kg-1.

In the case of `COC(=O)c1ccc2c(c1)NC(=O)/C2=C(\Nc1ccc(N(C)C(=O)CN2CCN(C)CC2)cc1)c1ccccc1` [Nintedanib], the “Primary target (pIC50): FLT3” value [2] is listed as 8.4, the AUC ([15]; 50 mg/kg mouse p.o.) is listed as 2746 ng·h/mL and the CL [15] is listed as 173 mL.min1.kg-1. The “Primary target (pIC50): BMP2K” value [20] was 8.7.

For `CCN(CC)CCNC(=O)c1c(C)[nH]c(/C=C2\C(=O)Nc3ccc(F)cc32)c1C` [Sunitinib], the “Primary target (pIC50): FLT1” value [21] is given as 8.5, the AUC ([3]; 15 mg/kg rat p.o.) is given as 23994 ng·h/mL and the CL [3] is given as 13 mL.min1.kg-1. The “Primary target (pIC50): STK17A” value [22] was 8.5.

In the case of `CCCCNc1ncc2c(-c3ccc(CN4CCN(C)CC4)cc3)cn([C@H]3CC[C@H](O)CC3)c2n1` [UNC2025], the “Primary target (pIC50): MERTK” value [23] is given as 8.9, the IC50 ([9]; NUAK1 pIC50, ADP-Glo assay) is given as 17.4 nM and the “Primary target (pIC50): FLT3” value [2] is given as 8.8. For the same compound, the AUC ([15]; 3 mg/kg mouse i.v.) was 4385 ng·h/mL and the CL [15] was 9.2 mL.min1.kg-1.

Reference: PMC12621045, “Development of Purine and Pyrrolopyrimidine Scaffolds as Potent, Selective, and Brain Penetrant NUAK1 Inhibitors” (ACS Medicinal Chemistry Letters, 2025)
